Where two headings read alike, the source gives them in different places.
Key:
[1] = system: Molt-4 human acute lymphoblastic leukemia cells; experiment: Molt-4 cell viability assay; assay type: cell-based; conditions: 10% human serum, 48 hours, CellTiter-Glo, read-out: Molt-4 Viability EC50 (nM, 10% HS)
Method: In one exemplary set of conditions, Molt-4 (ATCC, Manassas, Va.) human acute lymphoblastic leukemia cells were plated 12,500 cells per well in 384-well tissue culture plates (Corning, Corning, N.Y.) in a total volume of 25 μL tissue culture medium supplemented with 10% human serum (Sigma-Aldrich, St. Louis, Mo.) and treated with a 3-fold serial dilution of the compounds of interest from 10 μM to 0.0005 μM. Each concentration was tested in duplicate at least 3 separate times. The number of viable cells following 48 hours of compound treatment was determined using the CellTiter-Glo® Luminescent Cell Viability Assay according to the manufacturer's recommendations (Promega Corp., Madison, Wis.). Compounds were tested in the presence of 10% HS.

Bcl-xL = Bcl-xL (Homo sapiens, UniProt Q07817); experiment: TR-FRET Bcl-xL binding assay (competition with probe F-Bak)
Chain of Bcl-xL (Q07817 whole entry): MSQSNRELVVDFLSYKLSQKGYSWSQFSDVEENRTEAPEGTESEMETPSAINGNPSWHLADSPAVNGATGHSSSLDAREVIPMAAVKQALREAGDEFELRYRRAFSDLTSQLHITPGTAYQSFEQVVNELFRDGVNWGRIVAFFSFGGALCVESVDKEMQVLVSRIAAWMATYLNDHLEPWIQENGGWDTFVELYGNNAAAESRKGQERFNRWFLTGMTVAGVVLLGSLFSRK
Method: For the assay, test compounds were serially diluted in DMSO starting at 50 μM (2× starting concentration; 10% DMSO) and 10 μL transferred into a 384-well plate. 10 μL of a protein/probe/antibody mix was then added to each well at final concentrations listed below:
The samples were then mixed on a shaker for 1 minute and incubated for an additional 2 hours at room temperature. For each assay plate, a probe/antibody and protein/antibody/probe mixture were included as a negative and a positive control, respectively. Fluorescence was measured on the Envision (Perkin Elmer) using a 340/35 nm excitation filter and 520/525 (F-Bak) and 495/510 nm (Tb-labeled anti-his antibody) emission filters. Dissociation constants (Ki) were determined using Wang's equation (Wang, 1995, FEBS Lett. 360:111-114). The TR-FRET assay can be performed in the presence of varying concentrations of human serum (HS) or fetal bovine serum (FBS). Compounds were tested both without HS and in the presence of 1% HS.

[2] = in the presence of 1% human serum (HS), read-out: Bcl-xL Binding Ki (nM, 1% HS)
[3] = without human serum, read-out: Bcl-xL Binding Ki

Row | Compound | EC50 [1] [nM] | Ki (Bcl-xL; [2]) [nM] | Ki (Bcl-xL; [3]) [nM]
1 | CNCCOC12CC3(C)CC(C)(CC(Cn4ncc(-c5ccc(-c6ccc7cccc(C(=O)Nc8nc9cccnc9s8)c7c6)nc5C(=O)O)c4C)(C3)C1)C2 [Compound W3.07, 3-[1-({3,5-dimethyl-7-[2-(methylamino)ethoxy]tricyclo[3.3.1.1^3,7]dec-1-yl}methyl)-5-methyl-1H-pyrazol-4-yl]-6-[8-([1,3]thiazolo[5,4-b]pyridin-2-ylcarbamoyl)naphthalen-2-yl]pyridine-2-carboxylic acid] | 432 | 0.29 | < 0.001
2 | CNCCOC12CC3(C)CC(C)(CC(Cn4ncc(-c5ccc(-c6ccc7cccc(C(=O)Nc8nc9ncccc9s8)c7c6)nc5C(=O)O)c4C)(C3)C1)C2 [Compound W3.08, 3-[1-({3,5-dimethyl-7-[2-(methylamino)ethoxy]tricyclo[3.3.1.1^3,7]dec-1-yl}methyl)-5-methyl-1H-pyrazol-4-yl]-6-[8-([1,3]thiazolo[4,5-b]pyridin-2-ylcarbamoyl)naphthalen-2-yl]pyridine-2-carboxylic acid] | 40 | 0.013 | < 0.001
3 | CNCCOC12CC3(C)CC(C)(CC(Cn4ncc(-c5ccc(N6CCc7c(OC)ccc(C(=O)Nc8nc9ccccc9s8)c7C6)nc5C(=O)O)c4C)(C3)C1)C2 [Compound W3.09, 6-[8-(1,3-benzothiazol-2-ylcarbamoyl)-5-methoxy-3,4-dihydroisoquinolin-2(1H)-yl]-3-[1-({3,5-dimethyl-7-[2-(methylamino)ethoxy]tricyclo[3.3.1.1^3,7]dec-1-yl}methyl)-5-methyl-1H-pyrazol-4-yl]pyridine-2-carboxylic acid] | 3.8 | 0.14 | < 0.001
4 | CNCCOC12CC3(C)CC(C)(CC(Cn4ncc(-c5ccc(-c6ccc7nccc(C(=O)Nc8nc9ccccc9s8)c7c6)nc5C(=O)O)c4C)(C3)C1)C2 [Compound W3.11, 6-[4-(1,3-benzothiazol-2-ylcarbamoyl)quinolin-6-yl]-3-[1-({3,5-dimethyl-7-[2-(methylamino)ethoxy]tricyclo[3.3.1.1^3,7]dec-1-yl}methyl)-5-methyl-1H-pyrazol-4-yl]pyridine-2-carboxylic acid] | 34.3 | 0.94 | < 0.001
5 | COCCNCCOC12CC3(C)CC(C)(CC(Cn4ncc(-c5ccc(N6CCc7c(OC)ccc(C(=O)Nc8nc9ccccc9s8)c7C6)nc5C(=O)O)c4C)(C3)C1)C2 [Compound W3.12, 6-[8-(1,3-benzothiazol-2-ylcarbamoyl)-5-methoxy-3,4-dihydroisoquinolin-2(1H)-yl]-3-{1-[(3-{2-[(2-methoxyethyl)amino]ethoxy}-5,7-dimethyltricyclo[3.3.1.1^3,7]dec-1-yl)methyl]-5-methyl-1H-pyrazol-4-yl}pyridine-2-carboxylic acid] | 2.6 | 0.051 | 0.0042
6 | Cc1c(-c2ccc(N3CCc4c(C#N)ccc(C(=O)Nc5nc6ccccc6s5)c4C3)nc2C(=O)O)cnn1CC12CC3(C)CC(C)(C1)CC(OCCN)(C3)C2 [Compound W3.13, 3-(1-{[3-(2-aminoethoxy)-5,7-dimethyltricyclo[3.3.1.1^3,7]dec-1-yl]methyl}-5-methyl-1H-pyrazol-4-yl)-6-[8-(1,3-benzothiazol-2-ylcarbamoyl)-5-cyano-3,4-dihydroisoquinolin-2(1H)-yl]pyridine-2-carboxylic acid] | 2290 | 6.8 | 0.013
7 | COCCNCCOC12CC3(C)CC(C)(CC(Cn4ncc(-c5ccc(-c6ccc7c(c6)N(C(=O)Nc6nc8ccccc8s6)CCC7)nc5C(=O)O)c4C)(C3)C1)C2 [Compound W3.14, 6-[1-(1,3-benzothiazol-2-ylcarbamoyl)-1,2,3,4-tetrahydroquinolin-7-yl]-3-{1-[(3-{2-[(2-methoxyethyl)amino]ethoxy}-5,7-dimethyltricyclo[3.3.1.1^3,7]dec-1-yl)methyl]-5-methyl-1H-pyrazol-4-yl}pyridine-2-carboxylic acid] | 1.8 | 0.014 | < 0.001
8 | COCCNCCOC12CC3(C)CC(C)(CC(Cn4ncc(-c5ccc(-c6ccc7cccc(C(=O)Nc8nc9ccccc9s8)c7c6)nc5C(=O)O)c4C)(C3)C1)C2 [Compound W3.15, 6-[8-(1,3-benzothiazol-2-ylcarbamoyl)naphthalen-2-yl]-3-{1-[(3-{2-[(2-methoxyethyl)amino]ethoxy}-5,7-dimethyltricyclo[3.3.1.1^3,7]dec-1-yl)methyl]-5-methyl-1H-pyrazol-4-yl}pyridine-2-carboxylic acid] | 2.5 | 0.1 | < 0.001
9 | Cc1c(-c2ccc(N3CCc4cccc(C(=O)Nc5nc6ccccc6s5)c4C3)nc2C(=O)O)cnn1CC12CC3(C)CC(C)(C1)CC(OCCNC1COC1)(C3)C2 [Compound W3.16, 6-[8-(1,3-benzothiazol-2-ylcarbamoyl)-3,4-dihydroisoquinolin-2(1H)-yl]-3-[1-({3,5-dimethyl-7-[2-(oxetan-3-ylamino)ethoxy]tricyclo[3.3.1.1^3,7]dec-1-yl}methyl)-5-methyl-1H-pyrazol-4-yl]pyridine-2-carboxylic acid] | 3.7 | 0.14 | < 0.001
10 | Cc1c(-c2ccc(N3CCc4cccc(C(=O)Nc5nc6ccccc6s5)c4C3)nc2C(=O)O)cnn1CC12CC3(C)CC(C)(C1)CC(OCCNCCS(N)(=O)=O)(C3)C2 [Compound W3.18, 6-[8-(1,3-benzothiazol-2-ylcarbamoyl)-3,4-dihydroisoquinolin-2(1H)-yl]-3-{1-[(3,5-dimethyl-7-{2-[(2-sulfamoylethyl)amino]ethoxy}tricyclo[3.3.1.1^3,7]dec-1-yl)methyl]-5-methyl-1H-pyrazol-4-yl}pyridine-2-carboxylic acid] | 14 | 0.19 | 0.038
11 | Cc1c(-c2ccc(N3CCc4scc(C(=O)Nc5nc6ccccc6s5)c4C3)nc2C(=O)O)cnn1CC12CC3(C)CC(C)(C1)CC(OCCN)(C3)C2 [Compound W3.19, 3-(1-{[3-(2-aminoethoxy)-5,7-dimethyltricyclo[3.3.1.1^3,7]dec-1-yl]methyl}-5-methyl-1H-pyrazol-4-yl)-6-[3-(1,3-benzothiazol-2-ylcarbamoyl)-6,7-dihydrothieno[3,2-c]pyridin-5(4H)-yl]pyridine-2-carboxylic acid] | > 10000 | 309 | 21
12 | Cc1c(-c2ccc(N3CCn4c(C(F)(F)F)nc(C(=O)Nc5nc6ccccc6s5)c4C3)nc2C(=O)O)cnn1CC12CC3(C)CC(C)(C1)CC(OCCN)(C3)C2 [Compound W3.20, 3-(1-{[3-(2-aminoethoxy)-5,7-dimethyltricyclo[3.3.1.1^3,7]dec-1-yl]methyl}-5-methyl-1H-pyrazol-4-yl)-6-[1-(1,3-benzothiazol-2-ylcarbamoyl)-3-(trifluoromethyl)-5,6-dihydroimidazo[1,5-a]pyrazin-7(8H)-yl]pyridine-2-carboxylic acid] | 18.2 | 0.014 | < 0.01
13 | CNCCOC12CC3(C)CC(C)(CC(Cn4ncc(-c5ccc(N6CCc7c(N)ccc(C(=O)Nc8nc9ccccc9s8)c7C6)nc5C(=O)O)c4C)(C3)C1)C2 [Compound W3.24, 6-[5-amino-8-(1,3-benzothiazol-2-ylcarbamoyl)-3,4-dihydroisoquinolin-2(1H)-yl]-3-[1-({3,5-dimethyl-7-[2-(methylamino)ethoxy]tricyclo[3.3.1.1^3,7]dec-1-yl}methyl)-5-methyl-1H-pyrazol-4-yl]pyridine-2-carboxylic acid] | 2210 | 8.14 | 0.794
14 | CNCC#Cc1cc2c(c(C(=O)Nc3nc4ccccc4s3)c1)CN(c1ccc(-c3cnn(CC45CC6(C)CC(C)(C4)CC(OCCOC)(C6)C5)c3C)c(C(=O)O)n1)CC2 [Compound W3.25, 6-[8-(1,3-benzothiazol-2-ylcarbamoyl)-6-[3-(methylamino)prop-1-yn-1-yl]-3,4-dihydroisoquinolin-2(1H)-yl]-3-(1-{[3-(2-methoxyethoxy)-5,7-dimethyltricyclo[3.3.1.1^3,7]dec-1-yl]methyl}-5-methyl-1H-pyrazol-4-yl)pyridine-2-carboxylic acid] | 424 | 0.9 | 0.138
15 | CNCCOC12CC3(C)CC(C)(CC(Cn4ncc(-c5ccc(-c6ccc7cncc(C(=O)Nc8nc9ccccc9s8)c7c6)nc5C(=O)O)c4C)(C3)C1)C2 [Compound W3.26, 6-[4-(1,3-benzothiazol-2-ylcarbamoyl)isoquinolin-6-yl]-3-[1-({3,5-dimethyl-7-[2-(methylamino)ethoxy]tricyclo[3.3.1.1^3,7]dec-1-yl}methyl)-5-methyl-1H-pyrazol-4-yl]pyridine-2-carboxylic acid] | 4.3 | 0.083 | < 0.02

Reference: patent US20160158377A1, “BCL-XL Inhibitory Compounds and Antibody Drug Conjugates Including the Same” (AbbVie Inc., priority 2014, published 2016)
